{"source": "patent US20260262643A1", "about": "“HERBICIDAL BENZOXAZINES” (FMC CORPORATION, priority 2022, published 2026)", "key": {"galium": {"system": "galium", "assay": "Test C postemergence", "assay_type": "in vivo, Galium aparine", "conditions": "10 days, 0 to 100 scale (0 no effect, 100 complete control)", "procedure,_shortened": "(§1)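 Pre: seeds in loam/sand, directed soil spray. Post: 1–2 leaf plants, 2–10 cm. Cmpd in non-phytotoxic solvent + surfactant. Greenhouse 10 d; visual rating vs untreated, 0 = none, 100 = complete control.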"}, "barnyardgrass [1]": {"system": "barnyardgrass", "assay": "Test C postemergence", "assay_type": "in vivo, Echinochloa crusgalli", "conditions": "10 days, 0 to 100 scale (0 no effect, 100 complete control)", "procedure,_shortened": "as §1"}, "ragweed [2]": {"system": "ragweed", "assay": "Test C preemergence", "assay_type": "in vivo, Ambrosia artemisiifolia", "procedure,_shortened": "as §1"}, "corn [3]": {"system": "corn", "assay": "Test C preemergence", "assay_type": "in vivo, Zea mays", "from_the_text": "(§2) Seeds of plant species selected from barnyardgrass (Echinochloa crusgalli), blackgrass (Alopecurus myosuroides), corn (Zea mays), foxtail, giant (giant foxtail, Setaria faberi), green foxtail (Setaria viridis), goosegrass (Eleusine indica), kochia (Bassia scoparia), oat, wild (wild oat, Avena fatua), pigweed, palmer (palmer amaranth, palmer pigweed, Amaranthus palmeri), Pigweed, Redroot (redroot pigweed, Amaranthus retroflexus), ragweed (common ragweed, Ambrosia artemisiifolia), ryegrass, Italian ([…] ryegrass, Lolium multiflorum), soybean (Glycine max), and wheat (Triticum aestivum) were planted into a blend of loam soil and sand and treated preemergence with a directed soil spray using test chemicals formulated in a non-phytotoxic solvent mixture which included a surfactant. At the same time, plants selected from these crops and weed species and also galium (catchweed bedstraw, Galium aparine) and horseweed (Erigeron canadensis) were planted in pots containing the same blend of loam soil and sand and treated with postemergence applications of test chemicals formulated in the same manner. Plants ranged in height from 2 to 10 cm and were in the one- to two-leaf stage for the postemergence treatment. Treated plants and untreated controls were maintained in a greenhouse for 10 days, after which time all treated plants were compared to untreated controls and visually evaluated for injury. Plant response ratings, summarized in Table C, are based on a 0 to 100 scale where 0 is no effect and 100 is complete control. A dash (-) response means no test result."}, "oat, wild [4]": {"system": "oat, wild", "assay": "Test C preemergence", "assay_type": "in vivo, Avena fatua", "from_the_text": "as §2"}, "ryegrass, Italian [5]": {"system": "ryegrass, Italian", "assay": "Test C preemergence", "assay_type": "in vivo, Lolium multiflorum", "procedure,_shortened": "as §1"}, "blackgrass [6]": {"system": "blackgrass", "assay": "Test C preemergence", "assay_type": "in vivo, Alopecurus myosuroides", "procedure,_shortened": "as §1"}, "kochia [7]": {"system": "kochia", "assay": "Test C preemergence", "assay_type": "in vivo, Bassia scoparia", "procedure,_shortened": "as §1"}, "green foxtail [8]": {"system": "green foxtail", "assay": "Test C postemergence", "assay_type": "in vivo, Setaria viridis", "conditions": "10 days, 0 to 100 scale (0 no effect, 100 complete control)", "procedure,_shortened": "as §1"}, "ryegrass, Italian [9]": {"system": "ryegrass, Italian", "assay": "Test C postemergence", "assay_type": "in vivo, Lolium multiflorum", "conditions": "10 days, 0 to 100 scale (0 no effect, 100 complete control)", "procedure,_shortened": "as §1"}, "blackgrass [10]": {"system": "blackgrass", "assay": "Test C postemergence", "assay_type": "in vivo, Alopecurus myosuroides", "conditions": "10 days, 0 to 100 scale (0 no effect, 100 complete control)", "procedure,_shortened": "as §1"}, "soybean [11]": {"system": "soybean", "assay": "Test C preemergence", "assay_type": "in vivo, Glycine max", "from_the_text": "as §2"}, "kochia [12]": {"system": "kochia", "assay": "Test C postemergence", "assay_type": "in vivo, Bassia scoparia", "conditions": "10 days, 0 to 100 scale (0 no effect, 100 complete control)", "procedure,_shortened": "as §1"}, "horseweed": {"system": "horseweed", "assay": "Test C postemergence", "assay_type": "in vivo, Erigeron canadensis", "conditions": "10 days, 0 to 100 scale (0 no effect, 100 complete control)", "procedure,_shortened": "as §1"}, "pigweed, palmer [13]": {"system": "pigweed, palmer", "assay": "Test C postemergence", "assay_type": "in vivo, Amaranthus palmeri", "conditions": "10 days, 0 to 100 scale (0 no effect, 100 complete control)", "procedure,_shortened": "as §1"}, "corn [14]": {"system": "corn", "assay": "Test C postemergence", "assay_type": "in vivo, Zea mays", "conditions": "10 days, 0 to 100 scale (0 no effect, 100 complete control)", "from_the_text": "as §2"}, "wheat [15]": {"system": "wheat", "assay": "Test C postemergence", "assay_type": "in vivo, Triticum aestivum", "conditions": "10 days, 0 to 100 scale (0 no effect, 100 complete control)", "from_the_text": "as §2"}, "barnyardgrass [16]": {"system": "barnyardgrass", "assay": "Test C preemergence", "assay_type": "in vivo, Echinochloa crusgalli", "procedure,_shortened": "as §1"}, "oat, wild [17]": {"system": "oat, wild", "assay": "Test C postemergence", "assay_type": "in vivo, Avena fatua", "conditions": "10 days, 0 to 100 scale (0 no effect, 100 complete control)", "from_the_text": "as §2"}, "soybean [18]": {"system": "soybean", "assay": "Test C postemergence", "assay_type": "in vivo, Glycine max", "conditions": "10 days, 0 to 100 scale (0 no effect, 100 complete control)", "from_the_text": "as §2"}, "green foxtail [19]": {"system": "green foxtail", "assay": "Test C preemergence", "assay_type": "in vivo, Setaria viridis", "procedure,_shortened": "as §1"}, "pigweed, palmer [20]": {"system": "pigweed, palmer", "assay": "Test C preemergence", "assay_type": "in vivo, Amaranthus palmeri", "procedure,_shortened": "as §1"}, "ragweed [21]": {"system": "ragweed", "assay": "Test C postemergence", "assay_type": "in vivo, Ambrosia artemisiifolia", "conditions": "10 days, 0 to 100 scale (0 no effect, 100 complete control)", "procedure,_shortened": "as §1"}, "wheat [22]": {"system": "wheat", "assay": "Test C preemergence", "assay_type": "in vivo, Triticum aestivum", "from_the_text": "as §2"}, "[23]": {"conditions": "500 g ai/ha, preemergence, 0 to 100 scale (0 no effect, 100 complete control)"}, "[24]": {"conditions": "Preemergence, 125 g ai/ha, 0 to 100 scale, 0 no effect, 100 complete control"}}, "data": [{"smiles": "CC(C)c1ncn(-c2ccc(S(C)(=O)=O)c(C(=O)N3C[C@H](C)Oc4c(Cl)cccc43)c2)n1", "note": "[Compound 393]", "values": [{"measurement": "Plant response rating, Galium", "setting": "galium; 500 g ai/ha, postemergence", "result": 100}, {"measurement": "Plant response rating, Galium", "setting": "galium; Postemergence, 125 g ai/ha", "result": 70}, {"measurement": "Plant response rating, Barnyardgrass", "setting": "barnyardgrass [1]; 500 g ai/ha, postemergence", "result": 50}, {"measurement": "Plant response rating, Barnyardgrass", "setting": "barnyardgrass [1]; Postemergence, 125 g ai/ha", "result": 30}, {"measurement": "Ragweed plant response rating", "setting": "ragweed [2]; [23]", "result": 0}, {"measurement": "Plant response rating, Ragweed", "setting": "ragweed [2]; [24]", "result": 0}, {"measurement": "Corn plant response rating", "setting": "corn [3]; [23]", "result": 20}, {"measurement": "Plant response rating, Corn", "setting": "corn [3]; [24]", "result": 0}, {"measurement": "Oat, Wild plant response rating", "setting": "oat, wild [4]; [23]", "result": 40}, {"measurement": "Plant response rating, Oat, Wild", "setting": "oat, wild [4]; [24]", "result": 0}, {"measurement": "Ryegrass, Italian plant response rating", "setting": "ryegrass, Italian [5]; [23]", "result": 90}, {"measurement": "Plant response rating, Ryegrass, Italian", "setting": "ryegrass, Italian [5]; [24]", "result": 0}, {"measurement": "Blackgrass plant response rating", "setting": "blackgrass [6]; [23]", "result": 20}, {"measurement": "Plant response rating, Blackgrass", "setting": "blackgrass [6]; [24]", "result": 20}, {"measurement": "Kochia plant response rating", "setting": "kochia [7]; [23]", "result": 90}, {"measurement": "Plant response rating, Kochia", "setting": "kochia [7]; [24]", "result": 80}, {"measurement": "Plant response rating, Foxtail, Green", "setting": "green foxtail [8]; 500 g ai/ha, postemergence", "result": 70}, {"measurement": "Plant response rating, Foxtail, Green", "setting": "green foxtail [8]; Postemergence, 125 g ai/ha", "result": 10}, {"measurement": "Plant response rating, Ryegrass, Italian", "setting": "ryegrass, Italian [9]; 500 g ai/ha, postemergence", "result": 80}, {"measurement": "Plant response rating, Ryegrass, Italian", "setting": "ryegrass, Italian [9]; Postemergence, 125 g ai/ha", "result": 10}, {"measurement": "Plant response rating, Blackgrass", "setting": "blackgrass [10]; 500 g ai/ha, postemergence", "result": 0}, {"measurement": "Plant response rating, Blackgrass", "setting": "blackgrass [10]; Postemergence, 125 g ai/ha", "result": 0}, {"measurement": "Soybean plant response rating", "setting": "soybean [11]; [23]", "result": 40}, {"measurement": "Plant response rating, Soybean", "setting": "soybean [11]; [24]", "result": 20}, {"measurement": "Plant response rating, Kochia", "setting": "kochia [12]; 500 g ai/ha, postemergence", "result": 90}, {"measurement": "Plant response rating, Kochia", "setting": "kochia [12]; Postemergence, 125 g ai/ha", "result": 70}, {"measurement": "Plant response rating, Horseweed", "setting": "horseweed; 500 g ai/ha, postemergence", "result": 20}, {"measurement": "Plant response rating, Horseweed", "setting": "horseweed; Postemergence, 125 g ai/ha", "result": 0}, {"measurement": "Plant response rating, Pigweed, Palmer", "setting": "pigweed, palmer [13]; 500 g ai/ha, postemergence", "result": 90}, {"measurement": "Plant response rating, Pigweed, Palmer", "setting": "pigweed, palmer [13]; Postemergence, 125 g ai/ha", "result": 60}, {"measurement": "Plant response rating, Corn", "setting": "corn [14]; 500 g ai/ha, postemergence", "result": 50}, {"measurement": "Plant response rating, Corn", "setting": "corn [14]; Postemergence, 125 g ai/ha", "result": 20}, {"measurement": "Plant response rating, Wheat", "setting": "wheat [15]; 500 g ai/ha, postemergence", "result": 20}, {"measurement": "Plant response rating, Wheat", "setting": "wheat [15]; Postemergence, 125 g ai/ha", "result": 10}, {"measurement": "Barnyardgrass plant response rating", "setting": "barnyardgrass [16]; [23]", "result": 70}, {"measurement": "Plant response rating, Barnyardgrass", "setting": "barnyardgrass [16]; [24]", "result": 40}, {"measurement": "Plant response rating, Oat, Wild", "setting": "oat, wild [17]; 500 g ai/ha, postemergence", "result": 40}, {"measurement": "Plant response rating, Oat, Wild", "setting": "oat, wild [17]; Postemergence, 125 g ai/ha", "result": 0}, {"measurement": "Plant response rating, Soybean", "setting": "soybean [18]; 500 g ai/ha, postemergence", "result": 100}, {"measurement": "Plant response rating, Soybean", "setting": "soybean [18]; Postemergence, 125 g ai/ha", "result": 70}, {"measurement": "Foxtail, Green plant response rating", "setting": "green foxtail [19]; [23]", "result": 100}, {"measurement": "Plant response rating, Foxtail, Green", "setting": "green foxtail [19]; [24]", "result": 80}, {"measurement": "Pigweed, Palmer plant response rating", "setting": "pigweed, palmer [20]; [23]", "result": 100}, {"measurement": "Plant response rating, Pigweed, Palmer", "setting": "pigweed, palmer [20]; [24]", "result": 80}, {"measurement": "Plant response rating, Ragweed", "setting": "ragweed [21]; 500 g ai/ha, postemergence", "result": 70}, {"measurement": "Plant response rating, Ragweed", "setting": "ragweed [21]; Postemergence, 125 g ai/ha", "result": 60}, {"measurement": "Wheat plant response rating", "setting": "wheat [22]; [23]", "result": 30}, {"measurement": "Plant response rating, Wheat", "setting": "wheat [22]; [24]", "result": 0}]}]}
